“And” between values parts separate entries of the source, which are not always exact repeats. Equal values may be shown once. Toxic doses and inconclusive results are not listed.
Test system: L1210 leukemia ip in BDF1 mice, survival T/C
Assay: NCI In Vivo Anticancer Drug Screen. Data for tumor model L1210 Leukemia (intraperitoneal) in B6D2F1 (BDF1) mice
Conditions: higher = longer survival
How it was run: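 Value reflects the ratio of survival in compound-treated mice to survival in vehicle-treated controls, with both groups carrying the same transplanted tumor.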

For `C[C@H](N)C(=O)N[C@@H]1[C@H]2C(=C(O)C[C@@H](O)[C@@H]2O)C(=O)O[C@@H]1C`, the T/C (endpoint: mean survival time, dose: 600.0 mg/kg/injection, schedule: Q01DX005 (ip), vehicle: saline) was 118 % of control, the T/C (endpoint: mean survival time, dose: 600.0 mg/kg/injection, schedule: Q01DX009 (sc), vehicle: saline) was 119 % of control and the T/C (endpoint: mean survival time, dose: 600.0 mg/kg/injection, schedule: Q03HX016 (ip), vehicle: saline) was 110 % of control. The T/C (endpoint: mean survival time, dose: 600.0 mg/kg/injection, schedule: Q03HX024 (ip), vehicle: saline) was 115 % of control, the T/C (endpoint: mean survival time, dose: 600.0 mg/kg/injection, schedule: Q04DX003 (ip), vehicle: saline) was 119 % of control and the T/C (endpoint: mean survival time, dose: 600.0 mg/kg/injection, schedule: Q08DX002 (ip), vehicle: saline) was 113 % of control. For the same compound, the T/C (endpoint: mean survival time, dose: 600.0 mg/kg/injection, schedule: Q## X004 (ip), vehicle: saline) was 111 % of control, the T/C (endpoint: mean survival time, dose: 656.0 mg/kg/injection, schedule: Q01DX015 (ip), vehicle: carboxymethylcellulose (CMC)) was 162 % of control and the T/C (endpoint: mean survival time, dose: 700.0 mg/kg/injection, schedule: Q01DX001 (ip), vehicle: saline) was 110 % of control and 117 % of control. The T/C (endpoint: mean survival time, dose: 700.0 mg/kg/injection, schedule: Q07DX Z (ip), vehicle: saline) was 114 % of control, the T/C (endpoint: mean survival time, dose: 800.0 mg/kg/injection, schedule: Q01DX Z (im), vehicle: saline) was 176 % of control and the T/C (endpoint: mean survival time, dose: 800.0 mg/kg/injection, schedule: Q01DX Z (oral), vehicle: saline) was 108 % of control. For the same compound, the T/C (endpoint: mean survival time, dose: 800.0 mg/kg/injection, schedule: Q01DX Z (sc), vehicle: saline) was 174 % of control, the T/C (endpoint: mean survival time, dose: 800.0 mg/kg/injection, schedule: Q## X032 (ip), vehicle: saline) was 117 % of control and the T/C (endpoint: mean survival time, dose: 900.0 mg/kg/injection, schedule: Q## X004 (ip), vehicle: saline) was 122 % of control. The T/C (endpoint: mean survival time, dose: 1084.0 mg/kg/injection, schedule: Q01DX001 (ip), vehicle: saline) was 94 % of control and 95 % of control, the T/C (endpoint: mean survival time, dose: 1200.0 mg/kg/injection, schedule: Q01DX001 (sc), vehicle: saline) was 101 % of control and the T/C (endpoint: mean survival time, dose: 1200.0 mg/kg/injection, schedule: Q03HX016 (ip), vehicle: saline) was 111 % of control. For the same compound, the T/C (endpoint: mean survival time, dose: 1200.0 mg/kg/injection, schedule: Q## X032 (ip), vehicle: saline) was 120 % of control and 121 % of control, the T/C (endpoint: mean survival time, dose: 1300.0 mg/kg/injection, schedule: Q01DX001 (ip), vehicle: saline) was 106 % of control and the T/C (endpoint: mean survival time, dose: 1350.0 mg/kg/injection, schedule: Q## X004 (ip), vehicle: saline) was 122 % of control. The T/C (endpoint: mean survival time, dose: 1400.0 mg/kg/injection, schedule: Q01DX001 (ip), vehicle: saline) was 106 % of control and 119 % of control, the T/C (endpoint: mean survival time, dose: 1400.0 mg/kg/injection, schedule: Q07DX Z (ip), vehicle: saline) was 120 % of control and the T/C (endpoint: mean survival time, dose: 1491.0 mg/kg/injection, schedule: Q01DX015 (ip), vehicle: carboxymethylcellulose (CMC)) was 155 % of control. For the same compound, the T/C (endpoint: mean survival time, dose: 1600.0 mg/kg/injection, schedule: Q01DX Z (im), vehicle: saline) was 160 % of control, the T/C (endpoint: mean survival time, dose: 1600.0 mg/kg/injection, schedule: Q01DX Z (oral), vehicle: saline) was 106 % of control and the T/C (endpoint: mean survival time, dose: 1650.0 mg/kg/injection, schedule: Q01DX001 (ip), vehicle: saline) was 96 % of control and 97 % of control. For the same compound, the T/C (endpoint: mean survival time, dose: 1687.0 mg/kg/injection, schedule: Q02DX004 (ip), vehicle: saline) was 166 % of control, the T/C (endpoint: mean survival time, dose: 2000.0 mg/kg/injection, schedule: Q01DX001 (ip), vehicle: saline) was 120 % of control and the T/C (endpoint: mean survival time, dose: 2024.0 mg/kg/injection, schedule: Q01DX001 (ip), vehicle: saline) was 115 % of control. For the same compound, the T/C (endpoint: mean survival time, dose: 2237.0 mg/kg/injection, schedule: Q01DX015 (ip), vehicle: carboxymethylcellulose (CMC)) was 108 % of control, the T/C (endpoint: mean survival time, dose: 2400.0 mg/kg/injection, schedule: Q01DX001 (sc), vehicle: saline) was 104 % of control and the T/C (endpoint: mean survival time, dose: 2400.0 mg/kg/injection, schedule: Q03HX016 (ip), vehicle: saline) was 119 % of control. The T/C (endpoint: mean survival time, dose: 2400.0 mg/kg/injection, schedule: Q08DX002 (ip), vehicle: saline) was 122 % of control, the T/C (endpoint: mean survival time, dose: 2464.0 mg/kg/injection, schedule: Q01DX001 (ip), vehicle: saline) was 100 % of control and the T/C (endpoint: mean survival time, dose: 2800.0 mg/kg/injection, schedule: Q01DX001 (ip), vehicle: saline) was 123 % of control. The T/C (endpoint: mean survival time, dose: 2800.0 mg/kg/injection, schedule: Q07DX Z (ip), vehicle: saline) was 119 % of control, the T/C (endpoint: mean survival time, dose: 3000.0 mg/kg/injection, schedule: Q01DX001 (ip), vehicle: saline) was 115 % of control and the T/C (endpoint: mean survival time, dose: 3200.0 mg/kg/injection, schedule: Q01DX Z (oral), vehicle: saline) was 108 % of control. For the same compound, the T/C (endpoint: median survival time, dose: 75.0 mg/kg/injection, schedule: Q01DX009 (ip), vehicle: saline) was 113 % of control, the T/C (endpoint: median survival time, dose: 133.0 mg/kg/injection, schedule: Q04DX003 (ip), vehicle: saline) was 97 % of control and the T/C (endpoint: median survival time, dose: 266.0 mg/kg/injection, schedule: Q04DX003 (ip), vehicle: saline) was 101 % of control. For the same compound, the T/C (endpoint: median survival time, dose: 532.0 mg/kg/injection, schedule: Q04DX003 (ip), vehicle: saline) was 110 % of control, the T/C (endpoint: median survival time, dose: 600.0 mg/kg/injection, schedule: Q01DX009 (ip), vehicle: saline) was 160 % of control and the T/C (endpoint: median survival time, dose: 1200.0 mg/kg/injection, schedule: Q01DX009 (ip), vehicle: saline) was 180 % of control.

From PubChem BioAssay AID248 (DTP/NCI, 2004)
